Reference: BigSolDB 2.1

Settings: in water

N#CN=C(N)N
Settings	solubility (mole fraction)
278.15 K	0.00303
283.15 K	0.00387
288.15 K	0.00526
293.15 K	0.00707
298.15 K	0.00891
303.15 K	0.0114
308.15 K	0.0141
313.15 K	0.0172
318.15 K	0.021
323.15 K	0.0265
